# Source: patent US10973744B2, “Conditioner composition comprising a chelant” (The Procter & Gamble Company, priority 2016, dated 2021)
# Test: Measurement of copper on hair after shampoo / rinse-off conditioner / leave-on treatment regimen (ICP-OES)
# Settings: after 20 regimen cycles, compared to control conditioning shampoo/control rinse-off conditioner
# Procedure: All testing are performed on colored hair switches (see Method of Measurement of copper on hair below) weighing approximately 4.0 grams and having a length of approximately 6 inches. The hair switches are commercially available from IHIP (International Hair Importers). Three hair switches per shampoo composition are used. An amount of […] of shampoo is spread via a syringe onto separate hair switch. That is, the dosage is 0.10 g of shampoo per g of hair. Each application consists of adding shampoo to the hair, milking for 30 seconds followed by rinsing for 30 seconds. Shampoo is then reapplied (0.1 g/g), milked for 30 seconds and rinsed for 30 seconds. Excess water is squeezed from the hair switches and left to air dry or treated with a rinse-off conditioner and/or a leave-on treatment composition. […]
# In several cases during this inventigation, the rinse-off conditioner treatment is followed by hair treatment with a leave-on treatment composition. Specifically, the appropriate quantity of the leave-on treatment composition is uniformely sprayed or spread onto separate hair switches (dosage of 0.10 g of solution per g of hair). […]
# Samples of 100 mg of hair were digested overnight with 2 ml of high purity concentrated nitric acid. […] Copper content of the hair switches was determined by inductively coupled plasma atomic spectroscopy (ICP-OES)). For each leg, 3 different samples were analyzed. […]
compound,measurement,value
"NCCNCCNCCN [2,3-Triethylenetetramine]",Removal of copper from hair (in words),effective removal of copper from hair
